In patent US20230312646A1, “ANTIBACTERIAL PEPTIDES” (priority 2020, published 2023):
Like-named read-outs stand apart in the source and are kept apart here. Numbered stars: 1 amine (or outer) side, 2 acyl side, 3 side chain; on linkers, the order of the positions; unused ones are H or OH. Square brackets hold non-standard residues; d marks the D form. Peptide text beside a SMILES is read from it. * marks the point of attachment. ACHC(1S,2S) = O=C([C@H]1CCCC[C@@H]1N[*:1])[*:2]; Acryloyl(3-(3-pyridyl),E) = O=C(/C=C/c1cccnc1)*; Phe(3,4-Cl2) = N[C@@H](Cc1ccc(Cl)c(Cl)c1)C(=O)O; X5 = O=C([C@@H]1CC(O)CN1[*:1])[*:2]; NMeR = CN[C@@H](CCCNC(=N)N)C(=O)O; Cha = N[C@@H](CC1CCCCC1)C(=O)O; NMeD = CN[C@@H](CC(=O)O)C(=O)O; Pip = O=C(O)[C@@H]1CCCCN1; Sar = CNCC(=O)O

Columns and labels:
[1] = target: T1, Escherichia coli SC (^EcSC) (Escherichia coli, UniProt P0A988); test: biochemical; type: binding
T1 construct: His tag (inferred from the pET15b vector and Ni-NTA purification) (N); made in house; host or cells: E. coli
T1 sequence (P0A988 whole entry): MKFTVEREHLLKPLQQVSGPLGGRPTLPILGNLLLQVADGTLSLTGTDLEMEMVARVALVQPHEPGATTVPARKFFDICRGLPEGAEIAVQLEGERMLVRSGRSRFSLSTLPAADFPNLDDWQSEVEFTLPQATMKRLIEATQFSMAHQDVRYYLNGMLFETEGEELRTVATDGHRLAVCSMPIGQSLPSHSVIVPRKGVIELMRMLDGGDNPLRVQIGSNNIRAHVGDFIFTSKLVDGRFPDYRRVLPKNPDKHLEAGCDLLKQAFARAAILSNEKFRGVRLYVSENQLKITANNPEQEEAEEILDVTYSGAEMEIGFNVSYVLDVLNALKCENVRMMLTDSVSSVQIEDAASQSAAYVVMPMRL
Method: The procedure has been described previously (Wolff, P.; Oliéric, V.; Briand, J. P.; Chaloin, O.; Dejaegere, A.; Dumas, P.; Ennifar, E.; Guichard, G.; Wagner, J.; Burnouf, D. Y., Structure-Based Design of Short Peptide Ligands Binding onto the E. coli Processivity Ring. J. Med. Chem. 2011, 54 (13), 4627-4637). Briefly, E.coli cells were transformed with plasmids pET15b containing the dnaN gene from E. coli and were grown in LB at 37° C. to OD 0.5, then induced by IPTG (0.1 mM) at 28° C. overnight. dnaN proteins fractions were first enriched on a Ni-NTA column, eluted with a histidine step (300 mM) and further purified on a Source Q column in buffer containing 20 mM Tris HCI pH 7.5, 0.5 mM EDTA and 10% (v/v) glycerol, using a gradient from 0 to 0.5 M NaCl. After a final ultracentrifugation (45 K, 1 h, 20° C.), soluble proteins were concentrated on a Centricon 30 K (Millipore) in the same buffer and stored at 4° C. in 2 M ammonium sulfate. Buffer exchange was performed on Centrikon 10 K at 4° C. before use and protein quality was assessed by DLS.
(§1) ITC experiments were performed using an iTC200 or a PEAQ-ITC instrument (Microcal Malvern Panalytical). Peptides (300 or 600 µM) were titrated at 25° C. by sequential injections (usually 2 µl each) into an SC solution (30 or 60 µM). Data were corrected for heat of injection by subtracting the signal of the titration of peptides into proteiN-free buffer solution (Hepes 10 mM pH 7.4, NaCl 0.15 M, EDTA 3 mM). Each titration was performed at least twice. Analyses of experimental data were performed following a classical treatment with the AFFINImeter software (https://www.affinimeter.com; S4S, Santiago de Compostela, Spain). In addition, kinetic information was obtained in some cases with kinITC as implemented in the software AFFINImeter.
All newly synthesized peptides were tested for their interaction with ^EcSC by ITC at 25° C. As a general rule, all thermodynamic profiles reveal an exothermic interaction, and a non-favorable entropic component. The resulting negative Gibb’s free energies characterize a spontaneous interaction. The analysis of raw data by the Affinimeter® software also gave access to kinetics rate constant of the interaction.

[2] = target: T2, clamps from Pseudomonas aeruginosa (^PaSC) (Pseudomonas aeruginosa, UniProt Q9I7C4); test: ITC of peptides with P. aeruginosa clamp; type: binding
T2 construct: made in house
T2 sequence (Q9I7C4 whole entry): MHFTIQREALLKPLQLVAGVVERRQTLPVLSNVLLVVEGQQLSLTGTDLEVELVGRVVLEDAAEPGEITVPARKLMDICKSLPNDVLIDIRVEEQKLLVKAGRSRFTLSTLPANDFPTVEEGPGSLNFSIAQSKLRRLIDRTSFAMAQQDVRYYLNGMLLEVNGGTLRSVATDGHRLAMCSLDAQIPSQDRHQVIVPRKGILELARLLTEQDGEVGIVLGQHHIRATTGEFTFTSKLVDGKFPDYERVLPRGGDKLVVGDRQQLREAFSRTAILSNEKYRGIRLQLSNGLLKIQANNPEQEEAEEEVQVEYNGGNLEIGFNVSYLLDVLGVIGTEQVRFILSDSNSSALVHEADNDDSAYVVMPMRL
Method: as §1
Protein quality was assessed by DLS. The purification of clamps from other bacteria used the same procedure.
The bacterial sliding clamps present a highly conserved binding site among bacterial species. […] All these species belong to the ESKAPE group and are in the first priority bacteria list established by the World Health Organization for which new antibiotics are urgently needed.

[3] = Kd (nM), ITC at 298.15 K (25° C.)
[4] = affinities (Kd in nM), P. aeruginosa, ITC at 25° C., means of three independant experiments, standard deviations in brackets
[5] = affinities (Kd in nM), E.coli, ITC at 25° C., means of three independant experiments, standard deviations in brackets

Question: `CC(=O)N[C@@H](CCC(N)=O)C(=O)N[C@@H](CC1CCCCC1)C(=O)N[C@@H](CC(=O)O)C(=O)N[C@@H](CC(C)C)C(=O)NCC(=O)N[C@@H](Cc1ccccc1)C(=O)O` [P29] (Ac-Q[Cha]DLGF-OH) was tested. Which “ΔG (kcal/mol)” value ([1]; ITC at 298.15 K (25° C.)) did it give?
Answer: -8.9 (± 0.1) kcal/mol

Question: And the Kd [1, 3]?
Answer: 313 nM

Question: And the kon ([1]; read-out: kon (M^-1.s^-1))?
Answer: 32000 M⁻¹ s⁻¹

Question: With `CC(=O)N[C@@H](CCC(N)=O)C(=O)N[C@@H](CC1CCCCC1)C(=O)N[C@@H](CC(=O)O)C(=O)N[C@@H](CC(C)C)C(=O)N(C)CC(=O)N[C@@H](CC(C)C)C(=O)O` [P30] (Ac-Q[Cha]DL[Sar]L-OH) as the compound, how does the “ΔG (kcal/mol)” value ([1]; ITC at 298.15 K (25° C.)) read?
Answer: -8.5 (± 0.2) kcal/mol

Question: What about the Kd [1, 3] of the same compound?
Answer: 583 nM

Question: What about the kon ([1]; read-out: kon (M^-1.s^-1)) of the same compound?
Answer: 40000 M⁻¹ s⁻¹

Question: `CC(=O)N[C@@H](CCC(N)=O)C(=O)N[C@@H](CC1CCCCC1)C(=O)N[C@@H](CC(=O)O)C(=O)N[C@@H](CC(C)C)C(=O)N[C@H]1CCCC[C@@H]1C(=O)N[C@@H](CC(C)C)C(=O)O` [P31] (Ac-Q[Cha]DL[ACHC(1S,2S)]L-OH) was tested. Which “ΔG (kcal/mol)” value ([1]; ITC at 298.15 K (25° C.)) did it give?
Answer: -7.4 (± 0.2) kcal/mol

Question: What about the Kd [1, 3] of the same compound?
Answer: 4070 nM

Question: And the kon ([1]; read-out: kon (M^-1.s^-1))?
Answer: 7400 M⁻¹ s⁻¹

Question: For `CC(=O)N[C@@H](CCC(N)=O)C(=O)N[C@@H](CC1CCCCC1)C(=O)N[C@@H](CC(=O)O)C(=O)N[C@@H](CC(C)C)C(=O)N1CCC[C@H]1C(=O)N[C@@H](CC(C)C)C(=O)O` [P32] (Ac-Q[Cha]DLPL-OH), which “ΔG (kcal/mol)” value ([1]; ITC at 298.15 K (25° C.)) is on record?
Answer: -9.2 (± 0.2) kcal/mol

Question: And the Kd [1, 3]?
Answer: 182 nM

Question: What about the “fold lower Kd / affinity enhancement in comparison to peptide P27” value ([1]; compared to P27) of the same compound?
Answer: 4 fold

Question: And the kon ([1]; read-out: kon (M^-1.s^-1))?
Answer: 57000 M⁻¹ s⁻¹

Question: Which “ΔG (kcal/mol)” value ([1]; ITC at 298.15 K (25° C.)) does the source give for `CC(=O)N[C@@H](CCC(N)=O)C(=O)N[C@@H](CC1CCCCC1)C(=O)N[C@@H](CC(=O)O)C(=O)N[C@@H](CC(C)C)C(=O)N1CC(O)C[C@H]1C(=O)N[C@@H](CC(C)C)C(=O)O` (stereo partly drawn) [P33] (Ac-Q[Cha]DL[X5]L-OH) here?
Answer: -8.8 (± 0.2) kcal/mol

Question: And the Kd [1, 3]?
Answer: 369 nM

Question: What about the kon ([1]; read-out: kon (M^-1.s^-1)) of the same compound?
Answer: 44000 M⁻¹ s⁻¹

Question: How did the “ΔG (kcal/mol)” value ([1]; ITC at 298.15 K (25° C.)) turn out when `CC(=O)N[C@@H](CCC(N)=O)C(=O)N[C@@H](CC1CCCCC1)C(=O)N[C@@H](CC(=O)O)C(=O)N[C@@H](CC(C)C)C(=O)N1CCCC[C@H]1C(=O)N[C@@H](CC(C)C)C(=O)O` [P34] (Ac-Q[Cha]DL[Pip]L-OH) was run?
Answer: -9.0 (± 0.1) kcal/mol

Question: What about the Kd [1, 3] of the same compound?
Answer: 243 nM

Question: What about the kon ([1]; read-out: kon (M^-1.s^-1)) of the same compound?
Answer: 43000 M⁻¹ s⁻¹

Question: `CC(=O)N[C@@H](CCC(N)=O)C(=O)N[C@@H](CC1CCCCC1)C(=O)N(C)[C@@H](CC(=O)O)C(=O)N[C@@H](CC(C)C)C(=O)N[C@@H](Cc1ccc(Cl)c(Cl)c1)C(=O)O` [P35] (Ac-Q[Cha][NMeD]L[Phe(3,4-Cl2)]-OH) was tested. Which Kd [1, 3] did it give?
Answer: 41 nM

Question: What about the kon ([1]; read-out: kon (M^-1 s^-1)) of the same compound?
Answer: 270000 M⁻¹ s⁻¹

Question: What about the Kd [2, 4] of the same compound?
Answer: 140 nM

Question: What does the source list for `CC(=O)N[C@@H](CCCNC(=N)N)C(=O)N[C@@H](CCC(N)=O)C(=O)N[C@@H](CC1CCCCC1)C(=O)N(C)[C@@H](CC(=O)O)C(=O)N[C@@H](CC(C)C)C(=O)N[C@@H](Cc1ccc(Cl)c(Cl)c1)C(=O)O` [P36] (Ac-RQ[Cha][NMeD]L[Phe(3,4-Cl2)]-OH)?
Answer: Kd [1, 3]: 278 nM; kon ([1]; read-out: kon (M^-1 s^-1)): 76000 M⁻¹ s⁻¹

Question: How did the Kd [1, 3] turn out when `CC(=O)N(C)[C@@H](CCCNC(=N)N)C(=O)N[C@@H](CCC(N)=O)C(=O)N[C@@H](CC1CCCCC1)C(=O)N(C)[C@@H](CC(=O)O)C(=O)N[C@@H](CC(C)C)C(=O)N[C@@H](Cc1ccc(Cl)c(Cl)c1)C(=O)O` [P37] (Ac-[NMeR]Q[Cha][NMeD]L[Phe(3,4-Cl2)]-OH) was run?
Answer: 92 nM

Question: And the Kd [1, 5]?
Answer: 74 nM

Question: And the Kd [2, 4]?
Answer: 169 nM

Question: What about the Kd ([2]; affinity for these clamps (^PaSC and ^AbSC), range over ^PaSC and ^AbSC) of the same compound?
Answer: 120 to 170 nM

Question: Which results are given for `CC(C)C[C@H](NC(=O)[C@H](CC(=O)O)N(C)C(=O)[C@H](CC1CCCCC1)NC(=O)[C@H](CCC(N)=O)NC(=O)/C=C/c1cccnc1)C(=O)N[C@@H](Cc1ccc(Cl)c(Cl)c1)C(=O)O` [P38] ({Acryloyl(3-(3-pyridyl),E)}-Q[Cha][NMeD]L[Phe(3,4-Cl2)]-OH)?
Answer: Kd [1, 3]: 46 nM; Kd [1, 5]: 45 nM; kon ([1]; read-out: kon (M^-1 s^-1)): 110000 M⁻¹ s⁻¹; Kd ([2]; ITC at 25° C., means of three independant experiments, standard deviations in brackets, read-out: affinities (Kd in nM), P. aeruginosa): 120 nM; Kd ([2]; range over ^PaSC and ^AbSC, read-out: affinity for these clamps (^PaSC and ^AbSC)): 120 to 170 nM
